Results reported in PubChem BioAssay (NCI).
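How tested: cells in 96-well plates exposed to compound for 48 hours at five concentrations. The concentration for full growth arrest is given as TGI.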

Experiments:
Test in all cases: DTP human tumour cell line panel, 48 h
[1] = test system: OVCAR-8 ovarian
[2] = test system: M14 melanoma
[3] = test system: DU-145 prostate
[4] = test system: CAKI-1 renal
[5] = test system: SK-MEL-2 melanoma
[6] = test system: HCC-2998 colon
[7] = test system: HCT-116 colon
[8] = test system: UACC-257 melanoma
[9] = test system: K-562 leukemia
[10] = test system: A498 renal
[11] = test system: BT-549 breast
[12] = test system: MDA-MB-435
[13] = test system: OVCAR-3 ovarian
[14] = test system: CCRF-CEM leukemia
[15] = test system: SNB-75 CNS

Structure (SMILES) | TGI [1] | TGI [2] | TGI [3] | TGI [4] | TGI [5] | TGI [6] | TGI [7] | TGI [8] | TGI [9] | TGI [10] | TGI [11] | TGI [12] | TGI [13] | TGI [14] | TGI [15]
CCC1c2[nH]c3ccccc3c2C[C@H]2C(=O)NC(Cc3ccccc3)C(=O)N12 (stereo not given in full) | > 100 µM | 86.1 µM | > 100 µM | 98.8 µM | 41.4 µM | 62.1 µM | 57.1 µM | 49.6 µM | > 100 µM | > 100 µM | 62.4 µM | 43.8 µM | 94.2 µM | – | –
Nc1nc(Cl)cc(NCC2(CO)CC(O)C2)n1 (stereo not given) | > 100 µM | – | > 100 µM | > 100 µM | > 100 µM | > 100 µM | > 100 µM | > 100 µM | > 100 µM | > 100 µM | > 100 µM | > 100 µM | > 100 µM | > 100 µM | > 100 µM
NC1=NC(=O)[C@H](CSCc2ccccc2)N1C(=O)OCc1ccccc1 | > 100 µM | – | > 100 µM | > 100 µM | > 100 µM | > 100 µM | > 100 µM | > 100 µM | > 100 µM | > 100 µM | > 100 µM | > 100 µM | > 100 µM | – | > 100 µM
CCOC(=O)c1cc(NC(=O)c2ccccc2)c(=O)n2c(cc3c(Cl)cccc32)c1O | > 100 µM | > 100 µM | > 100 µM | > 100 µM | > 100 µM | > 100 µM | > 100 µM | > 100 µM | > 100 µM | > 100 µM | > 100 µM | > 100 µM | > 100 µM | > 100 µM | –
N#Cc1c(-c2ccccc2)cc(Nc2ccc(F)cc2)n2c1nc1ccccc12 | > 32.7 µM | > 100 µM | > 100 µM | > 100 µM | 4.35 µM | > 100 µM | 6.06 µM | 8.78 µM | > 100 µM | 12 µM | > 25.2 µM | > 100 µM | 19.3 µM | – | 6.76 µM
O=C(O)c1ccccc1/C=C1\Cc2ccc3c(c2C1=O)CCCC3 | > 100 µM | 81.1 µM | > 100 µM | – | 88.7 µM | 85.1 µM | 80.4 µM | 68.4 µM | > 100 µM | 89 µM | > 100 µM | > 100 µM | > 100 µM | 66.2 µM | 86 µM
COc1ccc([N+](=O)[O-])cc1[I+]c1cc([N+](=O)[O-])ccc1OC | > 100 µM | > 100 µM | > 100 µM | > 100 µM | > 100 µM | > 100 µM | > 100 µM | > 100 µM | > 100 µM | > 100 µM | > 100 µM | 49.3 µM | > 100 µM | > 100 µM | –
Brc1ccc(C2(N3CCCCC3)CCCCC2)s1 | – | 71.4 µM | > 100 µM | > 100 µM | 37 µM | 35.3 µM | > 100 µM | 94.6 µM | 52.5 µM | > 100 µM | > 100 µM | 73.3 µM | > 100 µM | 39.2 µM | –
CC1=NN(c2ccccc2Cl)C2(C1)SCC(=O)N2c1nc2ccccc2s1 (stereo not given) | > 100 µM | > 100 µM | > 100 µM | > 100 µM | > 100 µM | > 100 µM | > 100 µM | > 100 µM | > 100 µM | > 100 µM | > 100 µM | > 100 µM | > 100 µM | – | > 100 µM
Cc1c(/C=N\NC(=S)N(C)CCN(C)C(=S)N/N=C\c2c(C)n(C)n(-c3ccccc3)c2=O)c(=O)n(-c2ccccc2)n1C | – | > 100 µM | > 100 µM | > 100 µM | > 100 µM | > 100 µM | > 100 µM | > 100 µM | – | > 100 µM | > 100 µM | > 100 µM | > 100 µM | – | > 100 µM
CCCCC[C@H]1CC=CC(=O)O1 | 24.8 µM | 26.7 µM | 36.1 µM | 10.4 µM | 19.1 µM | 19.7 µM | 12.9 µM | 32.6 µM | > 100 µM | 9.03 µM | 20.3 µM | 23 µM | 21.9 µM | 40.6 µM | –
C=CCSC1=N/C(=C\c2ccco2)C(=O)N1CC=C | > 100 µM | > 100 µM | > 100 µM | > 100 µM | > 100 µM | > 100 µM | > 100 µM | > 100 µM | > 100 µM | 94.1 µM | > 100 µM | > 100 µM | > 100 µM | > 100 µM | –
CC(=O)/C(=C\n1c(=S)[nH]c2ccc([N+](=O)[O-])cc21)C(=O)Nc1ccccc1C | > 100 µM | > 100 µM | > 100 µM | > 100 µM | > 100 µM | > 100 µM | > 100 µM | > 100 µM | > 100 µM | > 100 µM | > 100 µM | > 100 µM | > 100 µM | > 100 µM | –
CN(C)c1ccc(C=Nc2ccc(-c3nc4ccccc4o3)cc2)cc1 | > 100 µM | > 100 µM | > 100 µM | – | 83.1 µM | 47.3 µM | > 100 µM | 72.5 µM | > 100 µM | > 100 µM | > 100 µM | > 100 µM | 51.4 µM | – | > 100 µM
